Measured values reported in patent US20200399222A1, “PICOLINAMIDES AS FUNGICIDES” (Dow AgroSciences LLC, priority 2018, published 2020).
Where two headings read alike, the source gives them in different places.

Columns and labels:
Zymoseptoria tritici = assay: Leaf blotch of wheat (SEPTTR) disease control on wheat seedlings; type: in vivo; conditions: High volume application, 100 ppm
Description: Example A: Evaluation of Fungicidal Activity: Leaf Blotch of Wheat (Zymoseptoria tritici; Bayer Code […]) Technical grades of materials were dissolved in acetone, which were then mixed with nine volumes of water containing 110 ppm Triton X-100. The fungicide solutions were applied onto wheat seedlings using an automated booth sprayer to run-off. All sprayed plants were allowed to air dry prior to further handling. All fungicides were evaluated using the aforementioned method for their activity vs. all target diseases, unless stated otherwise. Wheat leaf blotch and brown rust activity were also evaluated using track spray applications, in which case the fungicides were formulated as EC formulations, containing 0.1% Trycol 5941 in the spray solutions. Wheat plants (variety Yuma) were grown from seed in a greenhouse in 50% mineral soil/50% soil-less Metro mix until the first leaf was fully emerged, with 7-10 seedlings per pot. These plants were inoculated with an aqueous spore suspension of Zymoseptoria tritici either prior to or after fungicide treatments. After inoculation the plants were kept in 100% relative humidity (one day in a dark dew chamber followed by two to three days in a lighted dew chamber at 20° C.) to permit spores to germinate and infect the leaf. The plants were then transferred to a greenhouse set at 20° C. for disease to develop. When disease symptoms were fully expressed on the 1st leaves of untreated plants, infection levels were assessed on a scale of 0 to 100 percent disease severity. Percent disease control was calculated using the ratio of disease severity on treated plants relative to untreated plants.

Puccinia triticina = assay: Wheat brown rust (PUCCRT) disease control on wheat seedlings; type: in vivo; conditions: High volume application, 100 ppm
Description: Technical grades of materials were dissolved in acetone, which were then mixed with nine volumes of water containing 110 ppm Triton X-100. The fungicide solutions were applied onto wheat seedlings using an automated booth sprayer to run-off. All sprayed plants were allowed to air dry prior to further handling. All fungicides were evaluated using the aforementioned method for their activity vs. all target diseases, unless stated otherwise. Wheat leaf blotch and brown rust activity were also evaluated using track spray applications, in which case the fungicides were formulated as EC formulations, containing 0.1% Trycol 5941 in the spray solutions. Example B: Evaluation of Fungicidal Activity: Wheat Brown Rust (Puccinia triticina; Synonym: Puccinia recondita f. sp. tritici; Bayer Code PUCCRT) Wheat plants (variety Yuma) were grown from seed in a greenhouse in 50% mineral soil/50% soil-less Metro mix until the first leaf was fully emerged, with 7-10 seedlings per pot. These plants were inoculated with an aqueous spore suspension of Puccinia triticina either prior to or after fungicide treatments. After inoculation the plants were kept in a dark dew room at 22° C. with 100% relative humidity overnight to permit spores to germinate and infect the leaf. The plants were then transferred to a greenhouse set at 24° C. for disease to develop. Fungicide formulation, application and disease assessment followed the procedures as described in the Example A.

[1] = 24 h, 1 Day Protectant, read-out: SEPTTR disease control rating, 1DP
[2] = 72 h, 3 Day Curative, read-out: SEPTTR disease control rating, 3DC
[3] = 24 h, 1 Day Protectant, read-out: PUCCRT disease control rating, 1DP
[4] = 72 h, 3 Day Curative, read-out: PUCCRT disease control rating, 3DC

Compound	pest or weed control at 100 ppm (Zymoseptoria tritici; [1]) [%]	pest or weed control at 100 ppm (Zymoseptoria tritici; [2]) [%]	pest or weed control at 100 ppm (Puccinia triticina; [3]) [%]	pest or weed control at 100 ppm (Puccinia triticina; [4]) [%]
COc1ccnc(C(=O)N[C@@H](C)C(=O)O[C@@H](C)[C@@H](C)c2c(C)cccc2C)c1O [Example 166]	> 80	> 80	> 80	> 80
COc1ccnc(C(=O)NCC(=O)O[C@@H](C)[C@@H](C)c2ccc(F)cc2)c1O [Example 121]	< 0	< 80	> 80	> 80
COc1ccnc(C(=O)N[C@@H](C)C(=O)O[C@H](C)[C@H](C)c2ccc(F)cc2C(F)(F)F)c1O [Example 162]	< 80	< 80	< 0	< 0
COc1ccnc(C(=O)N[C@@H](C)C(=O)O[C@@H](C)[C@@H](C)c2ccc(C)cc2C)c1O [Example 116]	< 80	> 80	> 80	> 80
COc1ccnc(C(=O)NCC(=O)O[C@@H](C)[C@H](C)c2ccccc2C)c1O [Example 120]	< 0	< 80	< 80	< 80
COc1ccc([C@@H](C)[C@@H](C)OC(=O)[C@H](C)NC(=O)c2nccc(OC)c2O)c(C)c1 [Example 137]	< 80	< 80	> 80	< 80
COc1ccnc(C(=O)N[C@@H](C)C(=O)OC(C)C(C)c2c(C)cccc2C)c1O (stereo partly shown) [Example 164]	< 80	> 80	> 80	> 80
COc1ccnc(C(=O)NCC(=O)O[C@H](C)[C@@H](C)c2ccc(F)cc2C)c1O [Example 124]	< 0	< 80	< 80	< 0
COc1ccnc(C(=O)NCC(=O)O[C@@H](C)[C@@H](C)c2ccc(F)cc2C)c1O [Example 118]	< 0	< 80	> 80	> 80
COc1ccnc(C(=O)N[C@H](C)C(=O)O[C@@H](C)[C@H](C)c2ccccc2C)c1O [Example 150]	< 80	< 80	< 0	< 80
COc1ccnc(C(=O)N[C@@H](C)C(=O)O[C@H](C)[C@H](C)c2ccc(F)cc2C)c1O [Example 133]	< 80	< 80	> 80	< 80
COc1ccc([C@H](C)[C@H](C)OC(=O)CNC(=O)c2nccc(OC)c2O)c(C)c1 [Example 122]	< 80	< 80	> 80	> 80
COc1ccnc(C(=O)N[C@@H](C)C(=O)O[C@@H](C)[C@H](C)c2ccccc2C)c1O [Example 130]	< 80	< 80	> 80	> 80
